# Laboratory results published in paper PMC5357725, “Global update on the susceptibility of human influenza viruses to neuraminidase inhibitors, 2014–2015” (Antiviral Research, 2016).
# Experiments:
# [1] = tested on: B/Victoria-lineage neuraminidase (NA); assay type: biochemical, influenza B/Victoria-lineage virus
# [2] = tested on: B/Yamagata-lineage neuraminidase (NA); assay type: biochemical, influenza B/Yamagata-lineage virus
Compound,"inhibition class (NI, RI, HRI) [1]","inhibition class (NI, RI, HRI) [2]"
"[H]/N=C(\N)N[C@H]1C=C(C(=O)O)O[C@@H]([C@H](OC)[C@H](O)CO)[C@@H]1NC(C)=O [Laninamivir, laninamivir]",NI (key: NI: B viruses <5-fold; RI: B viruses 5- to 50-fold; HRI: B viruses >50-fold),NI (key: NI: B viruses <5-fold; RI: B viruses 5- to 50-fold; HRI: B viruses >50-fold)
"CC(=O)N[C@H]1[C@H]([C@H](O)[C@H](O)CO)OC(C(=O)O)=C[C@@H]1N=C(N)N [Zanamivir, zanamivir]",NI (key: NI: B viruses <5-fold; RI: B viruses 5- to 50-fold; HRI: B viruses >50-fold),–
